Test results reported in article PMC12299981, “Human Metabolism of Sirolimus Revisited” (Metabolites, 2025).

Assays:
[1] = system: pooled human liver microsomes (HLM); assay: Formation kinetics of SRL metabolites by pooled human liver microsomes; format: in vitro ADME; settings: for Vmax: apparent Vmax of formation of the metabolite from sirolimus; for Vmax / Km: Michaelis–Menten fit; for Km: apparent Km of formation of the metabolite from sirolimus; for CLint: apparent intrinsic clearance of formation of the metabolite, CLint = Vmax/Km
Experimental: (§1) Apparent enzyme kinetic parameters for the major SRL metabolites were assessed. […] Before the addition of the SRL, the NADPH-generating system was preincubated at 37 °C (type C24 incubator shaker, New Brunswick Scientific, Edison, NJ, USA) for 5 min. […] The final volume of the reaction solution was 500 μL, and the reaction was quenched by the addition of a 1:1 volume of ice-cold acetonitrile. Following protein precipitation, samples were briefly vortexed and subsequently centrifuged at 4 °C and 13,000× g for 10 min. The supernatant was transferred to a 2-mL HPLC glass vial and analyzed using high-performance liquid chromatography/tandem mass spectrometry (LC-MS/MS). Representative control incubations without HLMs, without drug, or without the NADPH-generating system (all in quadruplicate) were carried out under the same conditions with every SRL HLM metabolism batch.
(§2) For data analysis, we utilized Sciex Analyst Software (version TF1.7.1) to process and interpret mass spectrometry data. […] Kinetics data was fitted using the GraphPad Prism Enzyme Kinetics Module (Version 10.0.2, for Windows, GraphPad Software, Boston, MA, USA).
(§3) The formation rates of hydroxy SRL and desmethyl SRL were analyzed and fitted using Michaelis–Menten kinetics. This approach enables the determination of kinetic parameters such as Vmax (maximum reaction velocity) and Km (substrate concentration at half-maximal velocity), which provide insight into the enzymatic activity and substrate affinity for these metabolites. […] To compare the formation of the various metabolites and to predict the human hepatic clearance, the apparent intrinsic clearances of the formation of the metabolites (CLint = Vmax/Km) were calculated.

[2] = system: phytohemagglutinin-stimulated human lymphocyte proliferation; design: method as in PMID 1352208; settings: percent of the immunosuppressive activity of SRL; cited from earlier work
[3] = Formation kinetics of SRL metabolites by pooled human liver microsomes; format: in vitro ADME; settings: human, pooled human liver microsomes, pH 7.4; sum over metabolite formation, pooled HLM, CLint = Vmax/Km; read-out: total Clint derived from the formation of hydroxylated and demethylated SRL metabolites
Experimental: as §1, §2, §3

[4] = design: method as in doi:10.1016/S0955-470X(10)80014-X, PMID 11165091; settings: stability is increased in a mildly acidic environment; cited from earlier work

## 11-Hydroxy sirolimus [11-Hydroxy SRL]
[1]; n = 4
  Vmax: 6.203 pmol/mg protein/min
[1]; n = 4, listed as 11-hydroxy SRL
  Vmax: 6.2 pmol/mg protein/min

## 23/24-Hydroxy sirolimus [23/24-Hydroxy SRL]
[1]; n = 4
  Vmax: 2.221 pmol/mg protein/min

## 27-O-Desmethyl sirolimus [27-O-desmethyl SRL]
[1]; n = 4
  Vmax: 0.552 pmol/mg protein/min

## CO[C@H]1C[C@@H]2CC(O)[C@@H](C)[C@@](O)(O2)C(=O)C(=O)N2CCCC[C@H]2C(=O)O[C@H]([C@H](C)C[C@@H]2CC[C@@H](O)[C@H](OC)C2)CC(=O)[C@H](C)/C=C(\C)[C@@H](O)[C@@H](OC)C(=O)[C@H](C)C[C@H](C)/C=C/C=C/C=C/1C (stereo partly drawn) [12-Hydroxy SRL, 12-Hydroxy sirolimus]
[1]; n = 4
  Km: 7.21 µM
  Vmax: 4.264 pmol/mg protein/min
[1]; n = 4, listed as 12-hydroxy SRL
  Vmax: 4.3 pmol/mg protein/min
[1]
  CLint: 0.6 µL/mg protein/min

## CO[C@@H]1C[C@H](C[C@@H](C)[C@@H]2CC(=O)[C@H](C)/C=C(\C)[C@@H](O)[C@@H](OC)C(=O)[C@H](C)C[C@H](C)/C=C/C=C/C=C(\C)[C@@H](O)C[C@@H]3CC[C@@H](C)[C@@](O)(O3)C(=O)C(=O)N3CCCC[C@H]3C(=O)O2)CC[C@H]1O [16-O-desmethyl SRL, 16-O-Desmethyl sirolimus]
[1]; n = 4
  Km: 24.4 µM
  Vmax: 1.828 pmol/mg protein/min
[1]
  CLint: 0.08 µL/mg protein/min

## COC1CC2CCC(C)C(O)(O2)C(=O)C(=O)N2CCCCC2C(=O)OC(C(C)CC2CCC(O)C(O)C2)CC(=O)C(C)C=C(C)C(O)C(OC)C(=O)C(C)CC(C)C=CC=CC=C1C (stereo not drawn) [39-O-desmethyl SRL, 39-O-Desmethyl sirolimus]
[1]; n = 4
  Km: 15 µM
  Vmax: 9.6 pmol/mg protein/min
[1]; n = 4, listed as 39-O-desmthyl SRL
  Vmax: 9.647 pmol/mg protein/min
[1]
  CLint: 0.65 µL/mg protein/min
[2]
  immunosuppressive activity relative to SRL: 10%

## CO[C@H]1C[C@@H]2CC[C@@H](C)[C@@](O)(O2)C(=O)C(=O)N2CCCC[C@H]2C(=O)O[C@H]([C@H](C)C[C@@H]2CC[C@@H](O)[C@H](OC)C2)CC(=O)[C@H](C)/C=C(\C)[C@@H](O)[C@@H](OC)C(=O)[C@H](C)C[C@H](C)/C=C/C=C/C=C/1C [SRL, Sirolimus]
[3]
  microsomal CLint: 2.35 µL/min/mg
[4]
  stability in aqueous solutions: low stability in aqueous solutions
